Here are results for 22 compounds from PMC5155152, “A diverse intrinsic antibiotic resistome from a cave bacterium” (Nature Communications, 2016).

For assay [1], the system named is T1, Paenibacillus sp. LC231.
T1 construct: LC231
As to the kind of experiment: microbe, parasite or virus in culture. Also noted: broth microdilution MIC, growth inhibition of Paenibacillus sp. LC231. From the text: (§1) We generated a quantitative antibiogram for Paenibacillus sp. LC231 for 40 different antibiotics that target diverse cellular processes and compared it with the susceptibility of a surface strain of Paenibacillus lautus ATCC 43898, the pathogen Staphylococcus aureus RN4220 and the environmental bacterium Kocuria rhizophila (formerly identified as Micrococcus luteus) (Supplementary Tables 1 and 2). […] Further experiments in this study investigate the molecular basis of resistance and not the contribution of each genetic determinant to the resistance phenotype of Paenibacillus sp. LC231. […] We focused our investigation on Paenibacillus sp. LC231 and determined that in addition to resistance to 14 classes of antibiotic, it inactivates 7 distinct classes.

Assay [2] relates to T2, MphI.
T2 construct: recombinant in E. coli BL21(DE3), pET vector, Ni-NTA purified
Put plainly: steady-state kinetics. It is filed as biochemical, Paenibacillus sp. LC231. The following applies: 400 μM tylosin, 50 mM HEPES pH 7.5, 40 mM KCl, 10 mM MgCl2, 25 °C.

Assay [3] deals with T1, Paenibacillus sp. LC231. As to the kind of experiment: microbe, parasite or virus in culture. Also noted: antibacterial susceptibility, minimal inhibitory concentration (quantitative antibiogram).
Excerpt: as §1

Assay [4] concerns T3, AAC(6′)-34.
T3 construct: recombinant in E. coli BL21(DE3), pET vector, Ni-NTA purified
As to the kind of experiment: CoA liberation with DTDP, steady-state kinetics. The following applies: 25 mM MES pH 6.0, 1 mM EDTA, 25 °C. It is filed as biochemical, Paenibacillus sp. LC231.

Assay [5] concerns T4, VatI.
T4 construct: recombinant in E. coli BL21(DE3), pET vector, Ni-NTA purified
Put plainly: steady-state kinetics. It is filed as biochemical, Paenibacillus sp. LC231. The following applies: 100 μM flopristin, 50 mM HEPES pH 7.5, 150 mM NaCl, 0.1 mM EDTA, 25 °C.

For assay [6], the system named is T5, CpaA.
T5 construct: recombinant in E. coli BL21(DE3), pET vector, Ni-NTA purified
Put plainly: spectrophotometric steady-state kinetics. It is filed as biochemical, Paenibacillus sp. LC231. The following applies: 5 μM capreomycin, 50 mM HEPES pH 7.5, 150 mM NaCl, 0.1 mM EDTA, room temperature.

SMILES strings stand for the structures. In brackets after ≈: the same amount, converted by molar mass. Read-outs that look alike come from different tables or passages of the source. Numbered stars: 1 amine (or outer) side, 2 acyl side, 3 side chain; on linkers, the order of the positions; unused ones are H or OH. Bridge positions count the residues as written; N and C are the ends. Square brackets hold non-standard residues; d marks the D form. Peptide text beside a SMILES is read from it. * marks the point of attachment. Ileψ(thiazoline)Cys = CC[C@H](C)[C@H](N)C1=N[C@H](C(=O)*)CS1; NMePhe(4-NMe2) = CN[C@@H](Cc1ccc(N(C)C)cc1)C(=O)O; X1 = O=C([C@@H]1CC=C(CN2CCOCC2)CN1[*:1])[*:2]; Picolinoyl(3-OH) = O=C(c1ncccc1O)*; Phg = N[C@H](C(=O)O)c1ccccc1; dOrn = NCCC[C@@H](N)C(=O)O; dAbu = CC[C@@H](N)C(=O)O

As to `CC[C@H](C)[C@H](N)C1=N[C@H](C(=O)N[C@@H](CC(C)C)C(=O)N[C@H](CCC(=O)O)C(=O)N[C@H](C(=O)N[C@H]2CCCCNC(=O)[C@H](CC(N)=O)NC(=O)[C@@H](CC(=O)O)NC(=O)[C@H](Cc3cnc[nH]3)NC(=O)[C@@H](Cc3ccccc3)NC(=O)[C@H]([C@@H](C)CC)NC(=O)[C@@H](CCCN)NC2=O)[C@@H](C)CC)CS1` [Bacitracin] ({Ileψ(thiazoline)Cys}-L[dE]IK[dOrn]I[dF]H[dD]N; lactam 4-C), in assay [1], the MIC was at least 128 µg/mL. In turn, `CCCCCCCCCC(=O)N[C@@H](Cc1c[nH]c2ccccc12)C(=O)N[C@H](CC(N)=O)C(=O)N[C@@H](CC(=O)O)C(=O)N[C@@H]1C(=O)NCC(=O)N[C@@H](CCCN)C(=O)N[C@@H](CC(=O)O)C(=O)N[C@H](C)C(=O)N[C@@H](CC(=O)O)C(=O)NCC(=O)N[C@H](CO)C(=O)N[C@@H]([C@H](C)CC(=O)O)C(=O)N[C@@H](CC(=O)c2ccccc2N)C(=O)O[C@@H]1C` [Daptomycin] came in with an MIC in assay [1] of 16 µg/mL (≈ 9.87 µM). Regarding `Nc1nc2c(ncn2[C@@H]2O[C@H](COP(=O)(O)OP(=O)(O)OP(=O)(O)O)[C@@H](O)[C@H]2O)c(=O)[nH]1` [GTP], the Km (in general, the concentration of substrate that gives half-maximal velocity) in assay [2] was found to be 10 ± 1.8 µM. Take `C/C(=C\C(=O)OCCCCCCCCC(=O)O)C[C@@H]1OC[C@H](C[C@@H]2O[C@H]2[C@@H](C)[C@H](C)O)[C@@H](O)[C@H]1O` [Mupirocin]: the MIC in assay [3] is at least 100 µg/mL. In assay [3], `CCn1cc(C(=O)O)c(=O)c2ccc(C)nc21` [Nalidixic acid] showed an MIC of 4 µg/mL (≈ 17.2 µM). On to `NC[C@@H]1O[C@H](O[C@H]2[C@@H](O)[C@H](O[C@@H]3[C@@H](O)[C@H](N)C[C@H](N)[C@H]3O[C@H]3O[C@H](CN)[C@@H](O)[C@H](O)[C@H]3N)O[C@@H]2CO)[C@H](N)[C@@H](O)[C@@H]1O` [Neomycin], for which, in assay [3], the MIC stood at 2 µg/mL (≈ 3.25 µM).

For `CO[C@@H]1[C@@H](OC(N)=O)[C@@H](O)[C@H](Oc2ccc3c(O)c(NC(=O)c4ccc(O)c(CC=C(C)C)c4)c(=O)oc3c2C)OC1(C)C` [Novobiocin], the MIC in assay [3] was 0.25 µg/mL (≈ 0.408 µM). Same read-out and setting: the figure for `CN[C@@H]1[C@H](O)[C@H](NC)[C@H]2O[C@@]3(O)C(=O)C[C@@H](C)O[C@H]3O[C@@H]2[C@H]1O` [Spectinomycin] is at least 128 µg/mL. `CN[C@@H]1[C@H](O[C@H]2[C@H](O[C@H]3[C@H](O)[C@@H](O)[C@H](N=C(N)N)[C@@H](O)[C@@H]3N=C(N)N)O[C@@H](C)[C@]2(O)C=O)O[C@@H](CO)[C@H](O)[C@H]1O` [Streptomycin] returned an MIC in assay [3] of at least 128 µg/mL. On to `CC[C@H]1OC(=O)[C@H](C)C(=O)[C@H](C)[C@@H](O[C@@H]2O[C@H](C)C[C@H](N(C)C)[C@H]2O)[C@](C)(OC)C[C@@H](C)C(=O)[C@H](C)[C@H]2N(CCCCn3cnc(-c4cccnc4)c3)C(=O)O[C@]12C` [Telithromycin], for which the MIC in assay [3] came out at 2 µg/mL (≈ 2.46 µM). With `CN(C)[C@@H]1C(O)=C(C(N)=O)C(=O)[C@@]2(O)C(O)=C3C(=O)c4c(O)cccc4[C@@](C)(O)[C@H]3C[C@@H]12` [Tetracycline], the MIC in assay [3] was at least 128 µg/mL. In assay [1], `C=C(NC(=O)C(=C)NC(=O)c1csc(C2=N[C@@H]3c4csc(n4)[C@H]4NC(=O)c5csc(n5)[C@H]([C@](C)(O)[C@@H](C)O)NC(=O)[C@H]5CSC(=N5)/C(=C/C)NC(=O)[C@H]([C@@H](C)O)NC(=O)c5csc(n5)[C@]3(CC2)NC(=O)[C@H](C)NC(=O)C(=C)NC(=O)[C@H](C)NC(=O)[C@H]([C@@H](C)CC)N[C@@H]2C=Cc3c([C@H](C)O)cc(nc3[C@H]2O)C(=O)O[C@@H]4C)n1)C(N)=O` [Thiostrepton] showed an MIC of 0.25 µg/mL (≈ 0.15 µM). The compound `C=C[C@]1(C)C[C@@H](OC(=O)CSCCN(CC)CC)[C@]2(C)[C@H](C)CC[C@]3(CCC(=O)[C@H]32)[C@@H](C)[C@@H]1O` [Tiamulin] showed an MIC in assay [3] of 32 µg/mL (≈ 64.8 µM).

Take `NC[C@H]1O[C@H](O[C@H]2[C@H](O)[C@@H](O[C@H]3O[C@H](CO)[C@@H](O)[C@H](N)[C@H]3O)[C@H](N)C[C@@H]2N)[C@H](N)C[C@@H]1O` [Tobramycin]: in assay [3], the MIC amounted to 32 µg/mL (≈ 68.4 µM). For `CN[C@H](CC(C)C)C(=O)N[C@H]1C(=O)N[C@@H](CC(N)=O)C(=O)N[C@H]2C(=O)N[C@H]3C(=O)N[C@H](C(=O)N[C@H](C(=O)O)c4cc(O)cc(O)c4-c4cc3ccc4O)[C@H](O)c3ccc(c(Cl)c3)Oc3cc2cc(c3O[C@@H]2O[C@H](CO)[C@@H](O)[C@H](O)[C@H]2O[C@H]2C[C@](C)(N)[C@H](O)[C@H](C)O2)Oc2ccc(cc2Cl)[C@H]1O` [Vancomycin], in assay [3], the MIC came to 1 µg/mL (≈ 0.69 µM). Regarding `CC(=O)SCCNC(=O)CCNC(=O)[C@H](O)C(C)(C)COP(=O)(O)OP(=O)(O)OC[C@H]1O[C@@H](n2cnc3c(N)ncnc32)[C@H](O)[C@@H]1OP(=O)(O)O` [acetyl-CoA], the results for the Km in assay [4] (35 μM sisomicin), in assay [5] and in assay [6] were 220 ± 26 µM, 48 ± 3 µM and 39 ± 3 µM, respectively.

Take `O=C(N[C@H](CO)[C@H](O)c1ccc([N+](=O)[O-])cc1)C(Cl)Cl` [chloramphenicol]: in assay [3], the MIC was found to be 32 µg/mL (≈ 99 µM). In assay [1], `C[C@H]1O[C@H](O[C@H]2[C@H](O)[C@@H](O)[C@@H](O)[C@H](O)[C@@H]2O)[C@@H](N)C[C@@H]1N=C(N)C(=O)O` [kasugamycin] came in with an MIC of at least 128 µg/mL. On to `CC[C@H]1NC(=O)[C@@H](NC(=O)c2ncccc2O)[C@@H](C)OC(=O)[C@H](c2ccccc2)NC(=O)[C@@H]2CC=C(CN3CCOCC3)CN2C(=O)[C@H](Cc2ccc(N(C)C)cc2)N(C)C(=O)[C@@H]2CCCN2C1=O` [linopristin] ({Picolinoyl(3-OH)}-T[dAbu]P[NMePhe(4-NMe2)][X1][Phg]; ester 1-C), for which the MIC in assay [3] came out at 64 µg/mL (≈ 67.4 µM). In the case of `CO[C@H]1/C=C/O[C@@]2(C)Oc3c(C)c(O)c4c(O)c(c(/C=N/N5CCN(C)CC5)c(O)c4c3C2=O)NC(=O)/C(C)=C\C=C\[C@H](C)[C@H](O)[C@@H](C)[C@@H](O)[C@@H](C)[C@H](OC(C)=O)[C@@H]1C` [rifampin], in assay [3], the MIC was found to be 1 µg/mL (≈ 1.22 µM). As for `CN[C@@H]1[C@@H](O)[C@@H](O[C@@H]2[C@@H](O)[C@H](O[C@H]3OC(CN)=CC[C@H]3N)[C@@H](N)C[C@H]2N)OC[C@]1(C)O` [sisomicin], in assay [4] (500 μM acetyl-CoA), the Km worked out at 4.7 ± 0.4 µM. `CC[C@H]1OC(=O)C[C@@H](O)[C@H](C)[C@@H](O[C@@H]2O[C@H](C)[C@@H](O[C@H]3C[C@@](C)(O)[C@@H](O)[C@H](C)O3)[C@H](N(C)C)[C@H]2O)[C@@H](CC=O)C[C@@H](C)C(=O)/C=C/C(C)=C/[C@@H]1CO[C@@H]1O[C@H](C)[C@@H](O)[C@@H](OC)[C@H]1OC` [tylosin] yielded an MIC in assay [3] of 16 µg/mL (≈ 17.5 µM).
